Measured values from patent US20240373877A1, “ANIMAL FOOD PRODUCT AND METHOD AND APPARATUS THEREFOR” (priority 2023, published 2024).

Assays:
[1] = Beef cattle feed trial (weight gain, feed efficiency, BUN); format: in vivo, Weanling Angus-X steers
[2] = tested on: bovine rumen microbes; test: Rumen microbial methane production in bovine rumen incubations; format: cell-based; conditions: Yeast 2%, Monensin 10 μM
Protocol: THYM was also found to have a very pronounced inhibition of methane production by rumen microbes.
Bovine rumen microbes were incubated anaerobically for 24 hours at 39° C. with a silage: corn substrate. Bar A indicates basal control incubation, and bars B-G indicate additions. […] Monensin (Rumensin) was used as a positive inhibitory control. The hop acid content of the THYM samples in incubation bars E & F was 100 and 60 μg/ml for alpha and beta acids respectively, similar to the concentrations of alpha and beta acids, 100 μg/ml, added in bars B and C.

CC[C@@]1([C@@H]2O[C@@H]([C@H]3O[C@@](O)(CO)[C@H](C)C[C@@H]3C)C[C@@H]2C)CC[C@H]([C@]2(C)CC[C@]3(C[C@H](O)[C@@H](C)[C@@H]([C@@H](C)[C@@H](OC)[C@H](C)C(=O)O)O3)O2)O1 [Monensin, monensin]
Average Daily Gain ([1]; 9 weeks, monensin 200 mg/animal or 1% THYM in rations): 1.65 kg/day
Gain to Feed Ratio ([1]; 9 weeks, monensin 200 mg/animal or 1% THYM in rations, M & T vs C p = 0.07): 0.38 kg/kg
blood urea nitrogen (BUN) level ([1]; feed trial, FIG. 6): significantly lower
inhibition at 10 µM ([2]; THYM 0.4% (of DM), vs paired control, p < 0.05): 68%
Methane Production, Experiment AVG ([2]; THYM 0.4%, N = 3 or 4): 11152 ppm
